These results are taken from patent US6927226B2, “Antidepressant azaheterocyclymethyl derivatives of 7,8-dihydro-3H-6,9-dioxa-1,3-diazacyclopenta[a]naphthalene” (Wyeth, priority 2001, dated 2005).

Data set [1] concerns the target T1, human 5-HT1A receptors (Homo sapiens, UniProt P08908).
T1 construct: expressed in transfected cells; host or cells: CHO cells, stably transfected
T1 sequence (P08908 1-422): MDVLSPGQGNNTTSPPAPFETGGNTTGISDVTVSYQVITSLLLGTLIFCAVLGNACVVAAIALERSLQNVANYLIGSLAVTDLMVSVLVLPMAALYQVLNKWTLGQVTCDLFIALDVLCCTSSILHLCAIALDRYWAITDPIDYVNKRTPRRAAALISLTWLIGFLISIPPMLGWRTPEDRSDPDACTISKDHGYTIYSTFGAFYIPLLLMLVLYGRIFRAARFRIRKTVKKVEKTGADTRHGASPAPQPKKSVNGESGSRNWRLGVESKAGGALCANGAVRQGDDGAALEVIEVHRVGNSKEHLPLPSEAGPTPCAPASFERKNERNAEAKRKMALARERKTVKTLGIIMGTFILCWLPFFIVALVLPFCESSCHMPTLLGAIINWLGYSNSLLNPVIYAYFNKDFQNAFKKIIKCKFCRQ
Kind of data set: [3H] 8-OHDPAT displacement from the 5-HT1A receptor (transfected CHO cells). The format is binding. An excerpt:
High affinity for the serotonin 5-HT1A receptor was established by testing the claimed compound's ability to displace [^3H] 8-OHDPAT (dipropylaminotetralin) from the 5-HT1A serotonin receptor following a modification of the procedure of Hall et al., J. Neurochem. 44, 1685 (1985) which utilizes CHO cells stably transfected with human 5-HT1A receptors.

Data set [2] deals with T2, serotonin transporter (Rattus norvegicus, UniProt P31652).
T2 construct: displace ^3H-paroxetine from male rat frontal cortical membranes; from tissue; host or cells: male rat frontal cortex membranes
Kind of data set: 3H-paroxetine displacement, affinity for the serotonin transporter. The format is binding.

For data set [3], the target named is T3, cloned human 5-HT1A receptors (Homo sapiens, UniProt P08908).
T3 construct: expressed in transfected cells
T3 sequence (P08908 1-422): T1 sequence (P08908 1-422)
Description: 35S-GTPγS binding assay, antagonist activity at 5-HT1A receptors. The format is biochemical. The note with it: reversal of the effects of the standard agonist 8-OHDPAT; for IC50: membranes with cloned human 5-HT1A receptors, read-out: 5-HT1A Function IC50. Here is the method:
Antagonist activity at 5-HT1A receptors was established by using a ^35S-GTPγS binding assay similar to that used by Lazareno and Birdsall (Br. J. Pharmacol. 109: 1120, 1993), in which the test compound's ability to affect the binding of ^35S-GTPγS to membranes containing cloned human 5-HT1A receptors was determined. Agonists produce an increase in binding whereas antagonists produce no increase but rather reverse the effects of the standard agonist 8-OHDPAT. The test compound's maximum inhibitory effect is represented as the Imax, while its potency is defined by the IC50.
(In general: Binding of GTPγS marks nucleotide exchange on a G protein.)

Where [4] appears, read: displacement of [3H] 8-OHDPAT, CHO cells stably transfected with human 5-HT1A receptors, read-out: 5-HT1A Receptor Affinity KI.
The mark [5] stands for this setting: displacement of 3H-paroxetine, male rat frontal cortical membranes, read-out: 5-HT Transporter Affinity KI.

What is called Ki is a measure of affinity in units of concentration, obtained from inhibition or displacement. A word on the IC50: it is the concentration at which inhibition is half-maximal. In general, melting point refers to the temperature of the solid-liquid transition.

Structures can show the parent of a compound that is named as a salt. Where two headings read alike, the source gives them in different places.

T2 sequence (P31652 whole entry): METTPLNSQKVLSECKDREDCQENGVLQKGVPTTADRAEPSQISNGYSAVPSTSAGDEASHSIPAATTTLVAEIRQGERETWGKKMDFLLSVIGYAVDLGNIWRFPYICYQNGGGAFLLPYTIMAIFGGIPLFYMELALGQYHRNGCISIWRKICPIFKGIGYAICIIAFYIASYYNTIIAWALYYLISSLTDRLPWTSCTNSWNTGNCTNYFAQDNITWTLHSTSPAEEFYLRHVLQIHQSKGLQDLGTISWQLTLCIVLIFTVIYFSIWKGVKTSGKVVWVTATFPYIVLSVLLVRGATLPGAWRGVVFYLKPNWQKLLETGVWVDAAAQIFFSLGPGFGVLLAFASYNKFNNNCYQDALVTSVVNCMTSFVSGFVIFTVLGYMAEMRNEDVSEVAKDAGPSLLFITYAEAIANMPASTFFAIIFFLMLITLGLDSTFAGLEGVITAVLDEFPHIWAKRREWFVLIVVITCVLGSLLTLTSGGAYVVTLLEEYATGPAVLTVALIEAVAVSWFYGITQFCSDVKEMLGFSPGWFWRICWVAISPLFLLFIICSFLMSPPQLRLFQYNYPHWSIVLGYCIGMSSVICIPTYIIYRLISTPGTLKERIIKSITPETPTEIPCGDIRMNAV

For the molecule `Fc1cccc2c(C3=CCN(CC4COc5ccc6[nH]c(C(F)(F)F)nc6c5O4)CC3)c[nH]c12` (stereo not drawn) [Example 7, 8-[4-(7-Fluoro-1H-indol-3-yl)-3,6-dihydro-2H-pyridin-1-ylmethyl]-2-trifluoromethyl-7,8-dihydro-3H-6,9-dioxa-1,3-diaza-cyclopenta[a]naphthalene], the affinity in data set [1] corresponds to a Ki of 0.81 nM. Besides, in data set [2], the affinity corresponds to a Ki of 0.69 nM. Also, in data set [3], the “5-HT1A Function (Imax), maximum inhibitory effect” value is “(89.1)” and the half-maximal inhibitory concentration (IC50) was 27.4 nM.
Turning to `Fc1ccc2[nH]cc(C3=CCN(CC4COc5ccc6[nH]c(C(F)(F)F)nc6c5O4)CC3)c2c1` (stereo not drawn) (as salt: fumarate) [Example 1, 8-[4-(5-Fluoro-1H-indol-3-yl)-3,6-dihydro-2H-pyridin-1-ylmethyl]-2-trifluoromethyl-7,8-dihydro-3H-6,9-dioxa-1,3-diaza-cyclopenta[a]naphthalene], the melting point lay in the range of 236 to 238 °C.
The molecule `Fc1ccc2c(C3=CCN(CC4COc5ccc6[nH]c(C(F)(F)F)nc6c5O4)CC3)c[nH]c2c1` (stereo not drawn) [Example 3, 8-[4-(6-Fluoro-1H-indol-3-yl)-3,6-dihydro-2H-pyridin-1-ylmethyl]-2-trifluoromethyl-7,8-dihydro-3H-6,9-dioxa-1,3-diaza-cyclopenta[a]naphthalene] returned a Ki in data set [1] of 2.67 nM. Also, the affinity in data set [2], expressed as Ki, was 1.12 nM. Also, in data set [3], the “5-HT1A Function (Imax), maximum inhibitory effect” value is “(66.5)” and the IC50 came to 22 nM.
Regarding `FC(F)(F)C(F)(F)c1nc2c3c(ccc2[nH]1)OCC(CN1CC=C(c2c[nH]c4ccccc24)CC1)O3` (stereo not drawn) [Example 8, 8-[4-(1H-Indol-3-yl)-3,6-dihydro-2H-pyridin-1-ylmethyl]-2-pentafluoroethyl-7,8-dihydro-3H-6,9-dioxa-1,3-diaza-cyclopenta[a]naphthalene], the inhibitory constant (Ki) in data set [1] (setting [4]) is 1.88 nM. Further, in data set [2] (setting [5]), the Ki came to 1.25 nM. For the same molecule, in data set [3], the “5-HT1A Function (Imax), maximum inhibitory effect” value is reported as “(91.1)” and the half-inhibitory concentration (IC50) came to 43.6 nM.
In turn, `Fc1cccc2c(C3=CCN(CC4COc5ccc6[nH]c(C(F)(F)F)nc6c5O4)CC3)c[nH]c12` (stereo not drawn) (as salt: fumarate) [Example 7, 8-[4-(7-Fluoro-1H-indol-3-yl)-3,6-dihydro-2H-pyridin-1-ylmethyl]-2-trifluoromethyl-7,8-dihydro-3H-6,9-dioxa-1,3-diaza-cyclopenta[a]naphthalene] gave a melting point of 239 to 240 °C.
In the case of `FC(F)(F)c1nc2c3c(ccc2[nH]1)OCC(CN1CC=C(c2c[nH]c4ccccc24)CC1)O3` (stereo not drawn) [Example 2, 8-[4-(1H-Indol-3-yl)-3,6-dihydro-2H-pyridin-1-ylmethyl]-2-trifluoromethyl-7,8-dihydro-3H-6,9-dioxa-1,3-diaza-cyclopenta[a]naphthalene], the Ki in data set [1] came to 1.76 nM. Besides, the inhibition constant (Ki) in data set [2] was 1.05 nM. Besides, in data set [3], the “5-HT1A Function (Imax), maximum inhibitory effect” value was “(82.5)” and the IC50 turned out to be 29 nM.
In data set [1], `Cc1nc2c3c(ccc2[nH]1)OCC(CN1CC=C(c2c[nH]c4ccccc24)CC1)O3` (stereo not drawn) [Example 4, 8-[4-(1H-Indol-3-yl)-3,6-dihydro-2H-pyridin-1-ylmethyl]-2-methyl-7,8-dihydro-3H-6,9-dioxa-1,3-diaza-cyclopenta[a]naphthalene] displayed an inhibitory constant (Ki) of 1.58 nM. The same molecule had a Ki in data set [2] of 0.41 nM. Also, in data set [3], the “5-HT1A Function (Imax), maximum inhibitory effect” value is “(100)” and the concentration for half-maximal inhibition (IC50) turned out to be 10 nM.
In turn, `FC(F)(F)c1nc2c3c(ccc2[nH]1)OCC(CN1CC=C(c2c[nH]c4ccccc24)CC1)O3` (stereo not drawn) (as salt: fumarate) [Example 2, 8-[4-(1H-Indol-3-yl)-3,6-dihydro-2H-pyridin-1-ylmethyl]-2-trifluoromethyl-7,8-dihydro-3H-6,9-dioxa-1,3-diaza-cyclopenta[a]naphthalene] displayed a melting point of 231 to 233 °C.
The molecule `Cc1nc2c3c(ccc2[nH]1)OCC(CN1CC=C(c2c[nH]c4ccccc24)CC1)O3` (stereo not drawn) (as salt: fumarate) (hydrate or solvate) [Example 4, 8-[4-(1H-Indol-3-yl)-3,6-dihydro-2H-pyridin-1-ylmethyl]-2-methyl-7,8-dihydro-3H-6,9-dioxa-1,3-diaza-cyclopenta[a]naphthalene] showed a melting point of 219 to 222 °C.
Molecule `Fc1ccc2[nH]cc(C3=CCN(CC4COc5ccc6[nH]c(C(F)(F)F)nc6c5O4)CC3)c2c1` (stereo not drawn) [Example 1, 8-[4-(5-Fluoro-1H-indol-3-yl)-3,6-dihydro-2H-pyridin-1-ylmethyl]-2-trifluoromethyl-7,8-dihydro-3H-6,9-dioxa-1,3-diaza-cyclopenta[a]naphthalene] came in with an inhibition constant Ki in data set [1] of 3.07 nM. This molecule also displayed a Ki in data set [2] of 1.04 nM. In addition, in data set [3], the “5-HT1A Function (Imax), maximum inhibitory effect” value was “(100)” and the half-inhibitory concentration (IC50) is 93.5 nM.
`Fc1ccc2c(C3=CCN(CC4COc5ccc6[nH]c(C(F)(F)F)nc6c5O4)CC3)c[nH]c2c1` (stereo not drawn) (as salt: fumarate) (hydrate or solvate) [Example 3, 8-[4-(6-Fluoro-1H-indol-3-yl)-3,6-dihydro-2H-pyridin-1-ylmethyl]-2-trifluoromethyl-7,8-dihydro-3H-6,9-dioxa-1,3-diaza-cyclopenta[a]naphthalene] gave a melting point of 215 to 220 °C.
As to `CCc1nc2c3c(ccc2[nH]1)OCC(CN1CC=C(c2c[nH]c4ccccc24)CC1)O3` (stereo not drawn) [Example 6, 8-[4-(1H-Indol-3-yl)-3,6-dihydro-2H-pyridin-1-ylmethyl]-2-ethyl-7,8-dihydro-3H-6,9-dioxa-1,3-diaza-cyclopenta[a]naphthalene], the inhibitory constant (Ki) in data set [1] turned out to be 1.34 nM; in data set [2], 0.42 nM. Moreover, the “5-HT1A Function (Imax), maximum inhibitory effect” value in data set [3] is given as “(35.0)”. In data set [3], the IC50 is 36 nM.
`FC(F)(F)C(F)(F)c1nc2c3c(ccc2[nH]1)OCC(CN1CC=C(c2c[nH]c4ccccc24)CC1)O3` (stereo not drawn) (as salt: fumarate) [Example 8, 8-[4-(1H-Indol-3-yl)-3,6-dihydro-2H-pyridin-1-ylmethyl]-2-pentafluoroethyl-7,8-dihydro-3H-6,9-dioxa-1,3-diaza-cyclopenta[a]naphthalene] showed a melting point of 238 to 239 °C.
For `CCc1nc2c3c(ccc2[nH]1)OCC(CN1CC=C(c2c[nH]c4ccccc24)CC1)O3` (stereo not drawn) (as salt: fumarate) [Example 6, 8-[4-(1H-Indol-3-yl)-3,6-dihydro-2H-pyridin-1-ylmethyl]-2-ethyl-7,8-dihydro-3H-6,9-dioxa-1,3-diaza-cyclopenta[a]naphthalene], the melting point was in the range of 231 to 232 °C.
As to `Cc1nc2ccc3c(c2n1C)OC(CN1CC=C(c2c[nH]c4ccccc24)CC1)CO3` (stereo not drawn) [Example 5, 8-[4-(1H-Indol-3-yl)-3,6-dihydro-2H-pyridin-1-ylmethyl]-1,2-dimethyl-7,8-dihydro-3H-6,9-dioxa-1,3-diaza-cyclopenta[a]naphthalene], the Ki in data set [1] (setting [4]) was found to be 52 nM. In addition, in data set [2] (setting [5]), the Ki is 2 nM. Also, in data set [3], the “5-HT1A Function (Imax), maximum inhibitory effect” value is “(100)” and the half-maximal inhibitory concentration (IC50) came to 6520 nM.
